Data from patent US20160050895A1, “TRANSGENIC NON-HUMAN ORGANISMS WITH NON-FUNCTIONAL TSPO GENES” (AUSTRALIAN NUCLEAR SCIENCE AND TECHNOLOGY ORGANIZATION, priority 2013, published 2016).

Key:
TSPO [1] = target: T1, TSPO (Mus musculus, UniProt P50637); experiment: Receptor film autoradiography of tissue sections with [3H]PK11195 and [125I]CLINDE; type: binding; design: Snap-frozen tissues were sectioned at 20 μm in a cryostat; from tissue; host or cells: mouse organ sections (brain, retina/eye, heart, adrenal, kidney, testis, spleen), C57BL/6 background; conditions: 10 μM unlabelled ligand; tissue sections from TSPO+/+ and TSPO+/- mice
Procedure: Snap-frozen tissues were sectioned at 20 μm in a cryostat, thaw mounted on poly-L-lysine-coated slides and stored at −80° C. until day of experiment. On the day of the experiment, slides were thawed at room temperature and air dried with a cool stream of air. Total and non-specific binding were determined by incubation with 1 nM of 3H-PK11195 with or without the presence of 3 μM of PK11195 in 130 mM TRIS-HCl buffer (pH 7.4) at room temperature for 20 minutes. Following incubation, the slides were briefly dipped twice in 130 mM TRIS-HCl buffer, washed twice for 5 minutes in fresh 130 mM TRIS-HCl at room temperature. The slides were finally briefly rinsed 3 times in chilled distilled H2O, dried under a cool stream of air and allowed to air dried overnight. Sections were exposed to Kodak BioMax MR film along with tritium microscales with known activity concentrations in X-ray film cassettes. Films were developed after 33 days and digitized using a GS800 Calibrated Densitometer (Bio-Rad, Hercules, Calif., USA). Images were analysed with Quantity One imaging analysis program (Bio-Rad, Hercules, Calif. USA); to assess the level of 3H-PK11195 binding, regions of interest were drawn over the tissue and an average optical density/mm^2 was calculated. Data obtained from an individual film, subject to interfilm variations, were normalized against other films through the optical density oftritium microscales.
The organs including brain, retina, heart, kidney and testes used for film autoradiography were dissected from wild-type (TSPO^+/+), heterozygous (TSPO^+/−), and homozygous (TSPO^−/−) mice and snap-frozen in liquid nitrogen. Cryostat organ sections at 18 μm were placed onto superfrost slides (Menzel-Glaser, Braunschweig, Germany) and stored in the dark at −20° C. for no longer than 1 week before the experiment. […] Tritium standards (Amersham Biosciences, Uppsala, Sweden) co-exposed with the organ sections on each Hyperfilm-^3H (Kodak Film) at 4° C. for 60 days, were used to quantify the autoradiographically measured binding. The hyperfilm was developed using Kodak GBX developer and fixer (Sigma Aldrich, St. Louis, Mo., U.S.A.). The hyperfilm was air-dried overnight before being scanned using the ArtixScan 1800f flatbed scanner (Microtek, Hsinchu, Taiwan), with greyscale using a magnification of 400% and an optical resolution of 2400 pixels per inch. No pre-scanning manipulation or filter was applied.
(§1) Tissue sections from TSPO^+/+, TSPO^+/− and TSPO^−/− mice were incubated at room temperature for 20 min in 170 mM Tris-HCl pH 7.4 containing 1 nM [^3H]PK11195 (specific activity 84 Ci/mmol; Perkin Elmer, Waltham, Mass., USA), washed twice for 5 min in 170 mM Tris-HCl, rinsed with 3 dips in ice-cold MilliQ H2O, and dried. […] Displacement binding was carried out in the presence of PK11195 (10 μM), CLINDE (10 μM) and PBR-11 (10 μM).

TSPO [2] = experiment: Film autoradiography of brain sections after facial nerve axotomy; type: binding, mouse; conditions: homozygous (TSPO-/-) mice
From the text: Procedures for facial nerve axotomy were approved by the animal ethics committee at the University of Sydney. Animals were anaesthetised using Isoflurane anaesthesia. Animals were monitored for a combination of respiration, heart rate, oxygen saturation and temperature during procedures using a variety of monitoring equipment to ensure anaesthetic depth. The surgical process commenced when foot-pad or plantar reflex could no longer be elicited. The fur on the ipsilateral (right) side of the neck was shaved from the ear downwards, and the skin cleaned using 70% ethanol. A small incision (0.5-0.7 cm in length) overlying the musculature covering the stylomastoid foramen was made. The facial nerve was identified, isolated and then transected completely. The skin of incision was closed with heal-glue. […] The animals were euthanized with CO2 3 days after the axotomy and brain tissue, including facial nerve nuclei in the brain stem and cerebellum, was immediately dissected, snap-frozen in liquid nitrogen, and then stored in −80° C. freezer until the cryostat section.
A small incision (0.5-0.7 cm) in the skin 0.5 cm dorsal and lateral to the ear was made and the facial nerve transected under an operating microscope. The incision was closed with 3M™ Vetbond™ Tissue Adhesive (St. Paul, Minn., USA). […] Mice were monitored carefully and euthanized with CO2 three days after the operation. Brains were dissected, placed in OCT, transferred to liquid nitrogen, and stored at −80° C. until cryo-sectioning.
as §1

TSPO [3] = experiment: Radioligand membrane saturation binding with 3H-PK11195; design: species or system mouse; conditions: renal tissue samples; TSPO knock-out mice
Procedure: Tissue samples were homogenised with T25 digital Ultra-Turrax homogenizer (Ika, Wilmington, N.C., USA) at speed setting 5 or 20000 rpm in approximately 45 mL of ice-cold TRIS buffer (pH 7.4), collected by centrifugation at 48000 g and the supernatant was then discarded. The procedure was then immediately repeated, this acts as an extra wash step to remove any soluble interfering substances to radioligand binding (Byland et al. 1993). Following the second centrifugation and removal ofsupernatant the samples were resuspended in approximately 50 volumes of ice-cold TRIS buffer (pH 7.4). Samples were aliquoted stored in −80° C. until required.
For TSPO knock-out mice studies, radioligand binding was performed using 3H-PK11195 racemate across a range of concentrations (FIG. 4). PK11195 is a TSPO specific probe. Total and non-specific binding was determined through 8 concentrations of 3H-PK11195 ranging from 0.56 nM to 20 nM. Non-specific binding was determined by the addition of 5 μM PK11195 to all concentrations of 3H-PK11195. […]
Organs were homogenised, washed twice in ice-cold 50 mM Tris-HCl (pH 7.4) by centrifugation at 48000×g, resuspended in 50 volumes of ice-cold 50 mM Tris-HCl, and protein concentration was determined using a BCA protein assay kit (Thermo Fisher Scientific). […] Non-specific binding was determined with 5 μM PK11195. […]

TSPO [4] = experiment: In vivo PET/CT imaging with [18F]PBR111; design: species or system mouse
Procedure: (§2) PET scans of test mice were performed using a small-animal Inveon PET/CT scanner (Siemens, Knoxville, Tenn., USA). Before scanning, the mice were anesthetized with 5% (v/v) isoflurane and positioned in the PET/CT scanner. The isoflurane level was maintained 1-2% thereafter. The body temperature was maintained with a feedback regulated heating pad and physiologic parameters (respiration and body temperature) were monitored (BioVet; m2m Imaging Corp.) for the entire scanning period. Lacri-lube (Allergan) was placed in the mouse's eyes to prevent drying while the mouse was anesthetized. The PET scans commenced simultaneously with the tail vein injection of [^18F]PBR111 (8-18 MBq/100 μL, 0.2 nmol). After 40 min of imaging, PBR111 (1 mg/kg in 2% acetic acid-saline) was injected via tail vein to determine the non-specific accumulation in organs and imaged for further 10 minutes. Upon completion of PET scanning, mice were CT scanned for 10 minutes for anatomical information. At the end of the study the mice were euthanized immediately after imaging by cervical dislocation while the animal was still fully anaesthetised.
(§3) Mice, anaesthetised (5% (v/v) isoflurane and maintained at 1-2%, were scanned using a small-animal Invcon PET/CT scanner (Siemens, Knoxville, Tenn., USA) according to methods described previously (Disselhorst, J. A. et al. Image-quality assessment for several positron emitters using the NEMA NU 4-2008 standards in the Siemens Inveon small-animal PET scanner. J Nucl Med 51, 610-617, doi:10.2967/jnumed.109.068858 (2010); Mattner, F. et al. Central nervous system expression and PET imaging of the translocator protein in relapsing-remitting experimental autoimmune encephalomyelitis. J Nucl Med 54, 291-298, doi: 10.2967/jnumed.112.108894 (2013)). Body temperature was maintained with a feedback regulated heating pad and respiration monitored (BioVet; m2m Imaging Corp, Cleveland, Ohio, USA). Scans started with the tail vein injection of [^18F]PBR111 (8-18 MBq/100 μL, […]). After 40 min of imaging, PBR111 (1 mg/kg in 2% acetic acid-saline) was injected to determine non-specific accumulation in organs and imaged for 10 minutes. Then, mice underwent a 10-min CT-scan for anatomical information. All PET data were corrected, normalised and reconstructed with an OSEM3D-MAP algorithm to produced PET volumes of activity concentration (kBq/ml).

TSPO [5] = target: T1, TSPO; experiment: In vivo PET/CT imaging with [18F]PBR111; design: from tissue; host or cells: organs of living mice (adrenal gland, kidney, heart, liver, lung, brain)
Procedure: as §2, §3

CCN(CC)C(=O)Cc1c(-c2ccc(I)cc2)nc2ccc(Cl)cn12 [CLINDE]
competitive binding: displacement of specific binding of [125I]CLINDE and [3H]PK11195 by unlabelled ligand (TSPO [1]): displaced

CC[C@@H](C)N(C)C(=O)c1cc2ccccc2c(-c2ccccc2Cl)n1 [PK11195, 1-(2-chlorophenyl)-N-methyl-N-(1-r-methylpropyl)-3-isoquinolinecarboxamide]
intensity of PK11195 binding in the cerebellum (TSPO [2]): the same as the surrounding background | binding of the TSPO-selective probe PK11195 (TSPO [3]): no binding | competitive binding: displacement of specific binding of [125I]CLINDE and [3H]PK11195 by unlabelled ligand (TSPO [1]): displaced

CCN(CC)C(=O)Cc1c(-c2ccc(OCCC[18F])cc2)nc2ccc(Cl)cn12 [[^18F]PBR111]
radiotracer observed in PET images (TSPO [4]; TSPO knock-out (homozygous, TSPO-/-) mouse): none | ligand binding in PET/CT images (TSPO [4]; TSPO-/- mice): no ligand binding | specific binding from radioligand kinetics and displacement with cold PBR111 (TSPO [4]; TSPO-/- mice, any organs, cold PBR111 (1 mg/kg)): do not have specific binding | time course of radiotracer uptake (TSPO [4]; adrenal gland, kidney, liver and heart, TSPO knock-out mice (TSPO-/-)): rapidly reaches the peak and then declines to the non-specific level | distribution of ligand binding in PET/CT images (TSPO [5]; TSPO+/+ and TSPO+/- mice): in organs with known high TSPO expression, notably kidney and adrenal gland | specific binding from radioligand kinetics and displacement with cold PBR111 (TSPO [5]; TSPO+/+ and TSPO+/- mice, cold PBR111 (1 mg/kg)): indicates specific binding | time course of radiotracer uptake (TSPO [5]; adrenal gland, kidney and liver, wild-type mice (TSPO+/+), until PBR111 at 40 min): slowly increases, but maintains a peak level | selectivity for TSPO (TSPO [5]; in vivo, validated against TSPO-/- null background): high selectivity | intensity of radiotracer in PET images (TSPO [5]; wild-type mouse (TSPO+/+)): high intensity

PBR-111
competitive binding: displacement of specific binding of [125I]CLINDE and [3H]PK11195 by unlabelled ligand (TSPO [1]): displaced
